Laboratory results as given in patent publication US9770451B2, “Composition including ATM inhibitor for reducing cellular senescence and use of the composition” (Samsung Electronics Co., Ltd., priority 2014, dated 2017).

Columns and labels:
[1] = test system: senescent fibroblasts (passage 37); assay: Cell proliferation and formation of cell colonies (crystal violet staining); type: cell-based, human; details: CP-466722; staining after 4 days
Description: A human fibroblast cell line was inoculated into a Dulbecco's Modified Eagle's medium (DMEM) containing 10% fetal bovine serum (FBS), 100 units/ml of penicillin, and 100 μg/ml of streptomycin (wherein these two antibiotics were purchased from Gibro-BRL, Grand Island, N.Y.), and then, cultured in a 5% CO2 incubator at a temperature of 37° C. The fibroblast cell line (i.e., M11 strain) was a cell line derived from the foreskin of a child. When the cells were grown to about 85% confluency in a plate, the cells were subjected to subculture. The early subculture was carried out at a split ratio of 1:4, and the late subculture was carried out at a split ratio of 1:2. When the cell doubling time was 14 days, the cells were considered to be senescent fibroblasts (passages 35 to 37).
To determine the optimal concentration upon the treatment with an ATM-kinase inhibitor KU-60019 (SELLECKCHEM, S1570, salt), the senescent fibroblasts (passage 37) were inoculated into each well of a 6-well plate at a concentration of 2,000 cells/well, and then, KU-60019 was added to each well of the 6-well plate ([…]). In addition, as a negative control group, the cells were cultured under the same conditions as described above, except that a medium used herein contained a dimethyl sulfoxide (DMSO) (0.05 (v/v) %) medium. […]

[2] = test system: senescent myoblasts (passage 11); assay: Morphological change by microscopy; type: cell-based, human; details: CP-466722 0.1 μM, 4 weeks
Description: A human myoblast cell line (Human Skeletal Muscle Myoblasts, Lonza CC-2580 LOT:0000387550) was inoculated into a plate (Greiner Bio One, 658950), which was coated with Collagen Type I, by using an SkBM™-2 Basal Medium (Lonza CC-3246) containing SkGM™-2 SingleQuots™ Kit (Lonza CC-3244), and then, cultured in a 5% CO2 incubator at a temperature of 37° C. When the cells were grown to about 85% confluency in the plate, the cells were subjected to subculture. The early subculture was carried out at a split ratio of 1:4, and the late subculture was carried out at a split ratio of 1:2. When the cell doubling time was 14 days, the cells were considered to be senescent […] (passages 10 to 12).
The senescent cells were inoculated into each well of a Collagen Type I-coated 6-well plate (Greiner Bio One, 657950) at a concentration of 2,000 cells/well, and then, the senescent myoblasts ([…]) in a CO2 incubator at a temperature of 37° C. for 4 weeks. The medium was replaced by a fresh medium containing KU-60019 (0.5 μM), once every 4 days. In addition, as a negative control group, the cells were cultured under the same conditions as described above, except that a medium used herein contained DMSO (0.05 (v/v) %).
In FIG. 16, the myoblasts were cultured in the presence of the ATM-kinase inhibitor KU-60019 (0.5 μM), and then, the cell shapes were photographed using a microscope. […]

In the case of `COc1cc2ncnc(-n3nc(-c4ccccn4)nc3N)c2cc1OC` [CP-466722, 2-(6,7-dimethoxyquinazolin-4-yl)-5-(pyridin-2-yl)-2H-1,2,4-triazol-3-amine], the “concentration producing best results in the cell proliferation and the formation of cell colonies” value [1] is reported as 0.1 µM and the “cell number and morphology vs DMSO control” value [2] is reported as “exist in a great number in the presence of CP-466722 and show a spindle form”.
